22 compounds from patent US5106407A, “Iodones and methods for antimicrobial use” (priority 1989, dated 1992) can be followed below.

Converted amounts (≈) assume the structure as drawn. Where two headings read alike, the source gives them in different places.

For one test, the system named is Bacillus subtilis. Briefly: minimum inhibitory concentration (MIC), agar dilution. Type of test: cell-based. As to conditions: Bacillus subtilis. How it is done: (§1) The minimum inhibitory concentration (MIC) for the compound of Example 19, i.e., (2-nitrophenyl)-iodonium 2,2-dimethyl-4,6-dioxo-1,3-dioxan-5-ylide was determined for 9 bacteria (using nutrient agar) and 5 yeast and fungi (using malt yeast agar). A one percent solution of this test compound (i.e., the compound of Example 19) was prepared in a mixture of acetone-water. Nutrient agar was prepared at pH 6.8 using deionized water according to standard Difco procedures. Malt yeast agar was prepared by adding 3 g Bacto yeast extract and 42 g Bacto Malt agar per liter of deionized water. The agar (nutrient agar when testing with bacteria and malt yeast agar when testing with yeast and fungi) was dispensed in 30 mL aliquots into 25×200 millimeter (mm) test tubes, capped and autoclaved for 15 min at 115° C. The test tubes containing the agar were cooled in a water bath until the temperature of the agar was 48° C. and then an appropriate amount of the one percent solution of the test compound was added (except in the controls where no test compound was added with the acetone-water) to the respective test tubes so that final concentrations of 500, 250, 100, 50, 25, 10, 5, 2.5, 1.0 and 0 parts per million (ppm) of the test compound in the agar were obtained. The agar solutions were each mixed and poured into individual petri plates so that each petri plate contained agar having a known concentration of test compound dispersed therein. After drying for 24 hr, the petri plates were inoculated with bacteria when the petri plates contained nutrient broth agar or with fungi and yeast when the petri plates contained malt yeast agar.
(§2) The inoculation with bacteria was accomplished using the following procedure. Twenty-four hr cultures of each of the bacteria were prepared by incubating the respective bacteria in tubes containing nutrient broth for 24 hr at 30° C. in a shaker. Dilutions of each of the 24 hr cultures were made so that 9 separate suspensions (one for each of the 9 test bacteria) were made, each containing about 10^8 colony forming units (CFU) per mL of suspension of a particular bacteria. Aliquots of 0.3 mL of each of the above suspensions were used to fill individual wells of a Steer's Replicator. For each microbial suspension, 0.3 mL was used to fill 3 wells (i.e., 3 wells of 0.3 mL each) so that for the 9 different bacteria 27 wells were filled. The Steer's Replicator was then used to inoculate the petri plates.
(§3) The petri plates were incubated at 30° C. for 48 hr and then read to determine if the test compound (i.e., the compound of Example 19) which was incorporated into the agar prevented growth of the respective bacteria. The minimum inhibitory concentration (MIC) for each bacteria was defined as the lowest concentration of the test compound which prevented growth of that bacteria.
(§4) In a similar procedure, the MIC (in ppm) of the compound of Example 11 (i.e., (2-nitrophenyl)-iodonium 2,6-dioxocyclohexylide) for various organisms was determined at an acid pH (about 6.8) and at an alkaline pH (about 8.2).
(§5) Using similar procedures, the MIC's (in ppm) of various compounds of Formula I and/or Formula II were determined for the organisms Enterobacter aerogenes and Bacillus subtilis in a neutral solution (pH about 6.8) and in an alkaline medium (pH about 8.2).

Another test has as its system Enterobacter aerogenes. The test is described as above. As to conditions: for MIC: Klebsiella aerogenes. Type of test: cell-based. How it is done:
as §1, §2, §3, §4, §5

Setting [1] is: alkaline growth medium (pH = 8.2), read-out: MIC (ABS).
The mark [2] stands for this setting: neutral growth medium (pH = 6.8), read-out: MIC (NBS).
[3] abbreviates: alkaline growth medium (pH = 8.2), read-out: MIC (AEA).
The mark [4] stands for this setting: neutral growth medium (pH = 6.8), read-out: MIC (NEA).

As a reminder, the MIC is the smallest concentration in the dilution series that meets the test's criterion for growth inhibition. As for `CS(=O)(=O)c1ccccc1[I+][c-]1c(=O)oc2ccc(Cl)cc2c1=O` [Example 27, ((2-Methylsulfonyl)phenyl)-iodonium 6-chloro-3,4-dihydro-2,4-dioxo-2H-benzopyran-3-ylide], the minimum inhibitory concentration (MIC) is at most 10 µg/mL in the test with Bacillus subtilis (setting [1]), at most 10 µg/mL with Bacillus subtilis (setting [2]), above 500 µg/mL with Enterobacter aerogenes (setting [3]) and above 500 µg/mL in the test with Enterobacter aerogenes (setting [4]).
Turning to “(2-Nitrophenyl)-iodonium 3,4,5,6-tetrahydro-4,6-doxo-5-pyrimidinylide [Example 35]”, in the test on Enterobacter aerogenes (alkaline growth medium (pH = 8.2)), the “MIC (AEA)” value is listed as above 500 ppm.
For the compound `CS(=O)(=O)c1ccccc1[I+][c-]1c(=O)oc2ccc(Br)cc2c1=O` [Example 30, ((2-Methylsulfonyl)phenyl)-iodonium 6-bromo-3,4-dihydro-2,4-dioxo-2H-benzopyran-3-ylide], the minimal inhibitory concentration (MIC) was at most 10 µg/mL in the test with Bacillus subtilis (setting [1]), at most 10 µg/mL in the test with Bacillus subtilis (setting [2]), above 500 µg/mL with Enterobacter aerogenes (setting [3]) and above 500 µg/mL in the test on Enterobacter aerogenes (setting [4]).
Regarding `O=c1oc2ccc(F)cc2c(=O)[c-]1[I+]c1ccccc1[N+](=O)[O-]` [Example 22, (2-Nitrophenyl)-iodonium 6-fluoro-3,4-dihydro-2,4-dioxo-2H-benzopyran-3-ylide], the MIC in the test on Bacillus subtilis (setting [1]) is 100 µg/mL (≈ 234 µM); in the test on Bacillus subtilis (setting [2]), at most 10 µg/mL; in the test with Enterobacter aerogenes (setting [3]), 250 µg/mL (≈ 585 µM); in the test with Enterobacter aerogenes (setting [4]), at most 10 µg/mL.
`CCn1c(=O)[c-]([I+]c2ccccc2[N+](=O)[O-])c(=O)n(CC)c1=S` [Example 36, (2-Nitrophenyl)-iodonium 1,3-diethylhexahydro-4,6-dioxo-2-thiopyrimidin-5-ylide]: the minimal inhibitory concentration (MIC) with Bacillus subtilis (setting [1]) is above 500 µg/mL; in the test on Bacillus subtilis (setting [2]) it was above 500 µg/mL; in the test on Enterobacter aerogenes (setting [3]), above 500 µg/mL; with Enterobacter aerogenes (setting [4]), 500 µg/mL (≈ 1120 µM).
On to `COc1ccc2oc(=O)[c-]([I+]c3ccccc3S(C)(=O)=O)c(=O)c2c1` [Example 28, ((2-Methylsulfonyl)phenyl)-iodonium 3,4-dihydro-6-methoxy-2,4-dioxo-2H-benzopyran-3-ylide], for which the minimum inhibitory concentration (MIC) in the test with Bacillus subtilis (setting [1]) was at most 10 µg/mL; in the test on Bacillus subtilis (setting [2]) it was at most 10 µg/mL; with Enterobacter aerogenes (setting [3]), above 500 µg/mL; with Enterobacter aerogenes (setting [4]), above 500 µg/mL.
As to `O=c1oc2ccc(Br)cc2c(=O)[c-]1[I+]c1ccccc1[N+](=O)[O-]` [Example 23, (2-Nitrophenyl)-iodonium 6-bromo-3,4-dihydro-2,4-dioxo-2H-benzopyran-3-ylide], the minimum inhibitory concentration (MIC) was 250 µg/mL (≈ 512 µM) in the test on Bacillus subtilis (setting [1]), 100 µg/mL (≈ 205 µM) in the test on Bacillus subtilis (setting [2]), above 500 µg/mL in the test on Enterobacter aerogenes (setting [3]) and above 500 µg/mL in the test on Enterobacter aerogenes (setting [4]).
Turning to `CC1(C)OC(=O)[C-]([I+]c2ccccc2S(C)(=O)=O)C(=O)O1` [Example 21, ((2-Methylsulfonyl)phenyl)-iodonium 2,2-dimethyl-4,6-dioxo-1,3-dioxan-5-ylide], the MIC with Bacillus subtilis (setting [1]) is 50 µg/mL (≈ 118 µM); in the test with Bacillus subtilis (setting [2]), 25 µg/mL (≈ 58.9 µM); with Enterobacter aerogenes (setting [3]) it was above 500 µg/mL; in the test on Enterobacter aerogenes (setting [4]), above 500 µg/mL.
For `CC1(C)OC(=O)[C-]([I+]c2ccc(Cl)cc2[N+](=O)[O-])C(=O)O1` [Example 18, (4-chloro-2-nitrophenyl)-iodonium 2,2-dimethyl-4,6-dioxo-1,3-dioxan-5-ylide], the MIC with Bacillus subtilis (setting [1]) worked out at 250 µg/mL (≈ 587 µM); in the test with Bacillus subtilis (setting [2]), 100 µg/mL (≈ 235 µM); with Enterobacter aerogenes (setting [3]) it was 250 µg/mL (≈ 587 µM); with Enterobacter aerogenes (setting [4]), 100 µg/mL (≈ 235 µM).
Consider `O=c1[nH]c2ccccc2c(=O)[c-]1[I+]c1ccccc1[N+](=O)[O-]` [Example 41, (2-Nitrophenyl)-iodonium 1,2,3,4-tetrahydro-2,4-dioxoquinolin-3-ylide], for which the MIC with Bacillus subtilis (setting [1]) is 500 µg/mL (≈ 1230 µM); in the test with Bacillus subtilis (setting [2]), at most 10 µg/mL; in the test on Enterobacter aerogenes (setting [3]), above 500 µg/mL; with Enterobacter aerogenes (setting [4]), at most 10 µg/mL.
In the case of `Cc1cccc2c(=O)[c-]([I+]c3ccccc3[N+](=O)[O-])c(=O)oc12` [Example 34, (2-Nitrophenyl)-iodonium 3,4-dihydro-8-methyl-2,4-dioxo-2H-benzopyran-3-ylide], the minimal inhibitory concentration (MIC) was 25 µg/mL (≈ 59.1 µM) in the test on Bacillus subtilis (setting [1]), at most 10 µg/mL in the test with Bacillus subtilis (setting [2]), 500 µg/mL (≈ 1180 µM) with Enterobacter aerogenes (setting [3]) and 500 µg/mL (≈ 1180 µM) with Enterobacter aerogenes (setting [4]).
Take `CS(=O)(=O)c1ccccc1[I+][c-]1c(=O)oc2ccc(C(=O)O)cc2c1=O` [Example 29, ((2-Methylsulfonyl)phenyl)-iodonium 6-carboxy-3,4-dihydro-2,4-dioxo-2H-benzopyran-3-ylide]: the MIC was at most 10 µg/mL in the test with Bacillus subtilis (setting [1]), at most 10 µg/mL in the test with Bacillus subtilis (setting [2]), above 500 µg/mL in the test with Enterobacter aerogenes (setting [3]) and above 500 µg/mL with Enterobacter aerogenes (setting [4]).
For the compound `O=C(O)c1ccc2oc(=O)[c-]([I+]c3ccccc3[N+](=O)[O-])c(=O)c2c1` [Example 26, (2-Nitrophenyl)-iodonium 6-carboxy-3,4-diohydro-2,4-dioxo-2H -benzopyran-3-ylide], the minimum inhibitory concentration (MIC) was 250 µg/mL (≈ 552 µM) with Bacillus subtilis (setting [1]), at most 10 µg/mL in the test on Bacillus subtilis (setting [2]), 250 µg/mL (≈ 552 µM) in the test with Enterobacter aerogenes (setting [3]) and 250 µg/mL (≈ 552 µM) in the test with Enterobacter aerogenes (setting [4]).
On to `O=C1c2ccccc2C(=O)[C-]1[I+]c1ccccc1[N+](=O)[O-]` [Example 48, (2-Nitrophenyl)-iodonium 2,3-dihydro-1,3-dioxo-1H-indan-2-ylide], for which the MIC in the test on Bacillus subtilis (setting [1]) was 25 µg/mL (≈ 63.6 µM); in the test with Bacillus subtilis (setting [2]) it was at most 1 µg/mL; with Enterobacter aerogenes (setting [3]), 250 µg/mL (≈ 636 µM); in the test with Enterobacter aerogenes (setting [4]), 50 µg/mL (≈ 127 µM).
Regarding `O=c1cc[nH]c(=O)[c-]1[I+]c1ccccc1[N+](=O)[O-]` [Example 43, (2-Nitrophenyl)-iodonium 1,2,3,4-tetrahydro-2,4-dioxopyridin-3-ylide], the MIC is 500 µg/mL (≈ 1400 µM) in the test with Bacillus subtilis (setting [1]), 50 µg/mL (≈ 140 µM) in the test on Bacillus subtilis (setting [2]), above 500 µg/mL with Enterobacter aerogenes (setting [3]) and 500 µg/mL (≈ 1400 µM) with Enterobacter aerogenes (setting [4]).
As for `CC1CC(=O)[C-]([I+]c2ccccc2[N+](=O)[O-])C(=O)C1` [Example 15, (2-Nitrophenyl)-iodonium 4-methyl-2,6-dioxocyclohexan-1-ylide], the MIC in the test on Bacillus subtilis (setting [1]) was at most 10 µg/mL; with Bacillus subtilis (setting [2]), at most 10 µg/mL; with Enterobacter aerogenes (setting [3]) it was 100 µg/mL (≈ 268 µM); with Enterobacter aerogenes (setting [4]) it was at most 10 µg/mL.
Regarding `Cc1cc(=O)[c-]([I+]c2ccccc2[N+](=O)[O-])c(=O)o1` [Example 47, (2-Nitrophenyl)-iodonium 3,4-dihydro-6-methyl-2,4-dioxo-2H-pyran-3-ylide], the minimal inhibitory concentration (MIC) was 500 µg/mL (≈ 1340 µM) with Bacillus subtilis (setting [1]), 25 µg/mL (≈ 67 µM) in the test with Bacillus subtilis (setting [2]), 500 µg/mL (≈ 1340 µM) in the test with Enterobacter aerogenes (setting [3]) and 100 µg/mL (≈ 268 µM) in the test with Enterobacter aerogenes (setting [4]).
In the case of `CC1(C)CC(=O)[C-]([I+]c2ccccc2[N+](=O)[O-])C(=O)C1` [Example 14, (2-Nitrophenyl)-iodonium 4,4-dimethyl-2,6-dioxocyclohexylide], the MIC was at most 1 µg/mL in the test with Bacillus subtilis (setting [1]), 2.5 µg/mL (≈ 6.46 µM) in the test with Bacillus subtilis (setting [2]), at most 1 µg/mL with Enterobacter aerogenes (setting [3]) and 2.5 µg/mL (≈ 6.46 µM) in the test with Enterobacter aerogenes (setting [4]).
Consider `COc1ccc2oc(=O)[c-]([I+]c3ccccc3[N+](=O)[O-])c(=O)c2c1` [Example 33, (2-Nitrophenyl)-iodonium 3,4-dihydro-6-methoxy-2,4-dioxo-2H-benzopyran-3-ylide], for which the MIC was at most 10 µg/mL in the test on Bacillus subtilis (setting [1]), at most 10 µg/mL in the test on Bacillus subtilis (setting [2]), above 500 µg/mL in the test with Enterobacter aerogenes (setting [3]) and above 500 µg/mL with Enterobacter aerogenes (setting [4]).
For the compound `Cc1cc(=O)[c-]([I+]c2ccccc2S(C)(=O)=O)c(=O)o1` [Example 46, ((2-Methylsulfonyl)phenyl)-iodonium 3,4-dihydro-6-methyl-2,4-dioxo-2H-pyran-3-ylide], the minimum inhibitory concentration (MIC) in the test on Bacillus subtilis (setting [1]) is at most 10 µg/mL; with Bacillus subtilis (setting [2]), at most 10 µg/mL; in the test with Enterobacter aerogenes (setting [3]) it was 50 µg/mL (≈ 123 µM); in the test on Enterobacter aerogenes (setting [4]), 100 µg/mL (≈ 246 µM).
As to `O=C1CCC(=O)[C-]1[I+]c1ccccc1[N+](=O)[O-]` [Example 10, (2-Nitrophenyl)-iodonium 2,5-dioxocyclopentyl-1-ylide], the MIC in the test with Bacillus subtilis (setting [1]) was above 500 µg/mL; in the test on Bacillus subtilis (setting [2]) it was 25 µg/mL (≈ 72.4 µM); with Enterobacter aerogenes (setting [3]), above 500 µg/mL; in the test with Enterobacter aerogenes (setting [4]), at most 10 µg/mL.
On to `O=c1oc2ccccc2c(=O)[c-]1[I+]c1ccccc1[N+](=O)[O-]` [Example 32, (2-Nitrophenyl)-iodonium 3,4-dihydro-2,4-dioxo-2H-benzopyran-3-ylide], for which the MIC was at most 10 µg/mL with Bacillus subtilis (setting [1]), at most 10 µg/mL in the test on Bacillus subtilis (setting [2]), 25 µg/mL (≈ 61.1 µM) with Enterobacter aerogenes (setting [3]) and at most 10 µg/mL with Enterobacter aerogenes (setting [4]).
